Source: patent US10561705B2, “Agonist peptide for adiponectin receptor” (priority 2016, dated 2020)
Square brackets hold non-standard residues; d marks the D form. Peptide text beside a SMILES is read from it. Nva = CCC[C@H](N)C(=O)O

Key:
[1] = target: T1, adiponectin receptor ADIPOR1 (Homo sapiens, UniProt Q96A54); assay: Kd (uM)
T1 construct: Flag tag (N); made in house; host or cells: SF9 insect cells (baculovirus, pFASTbac1)
Text: Table printed on a drawing sheet, FIG. 1
Head of the field: Kd (uM)
Where the first naming reader finds the target: description_of_the_figure: dissociation constant values of synthetic peptides (3 peptides from 3rd round, 4 peptides from 4th round) from the adiponectin receptor ADIPOR1

[2] = target: T2, adiponectin receptor 1 (ADIPOR1) (Homo sapiens, UniProt Q96A54); assay: Surface plasmon resonance (SPR) binding of peptide to immobilized recombinant ADIPOR1; conditions: ADIPOR1 amine-coupled to CM5 chip, running buffer pH 7.4, read-out: dissociation constant (Kd) from ADIPOR1
T2 construct: Flag tag (N); made in house; host or cells: SF9 insect cells (baculovirus, pFASTbac1)
T2 sequence (Q96A54 89-375): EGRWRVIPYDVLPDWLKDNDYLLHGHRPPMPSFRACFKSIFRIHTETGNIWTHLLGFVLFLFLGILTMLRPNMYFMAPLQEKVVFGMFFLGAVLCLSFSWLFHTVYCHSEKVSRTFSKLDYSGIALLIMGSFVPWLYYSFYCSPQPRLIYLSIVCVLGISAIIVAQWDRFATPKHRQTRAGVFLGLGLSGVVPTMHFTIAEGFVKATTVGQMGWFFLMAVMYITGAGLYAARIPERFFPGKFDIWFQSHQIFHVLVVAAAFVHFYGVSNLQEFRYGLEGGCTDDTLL
Text: The ADIPOR1 protein sequence used was the same as that used for the ADIPOR1 structure analysis, in which 88 amino acids at the N-terminal have been removed. The gene capable of producing the protein sequence was synthesized by codon optimization (IDT). At the time, a BamHI restriction enzyme site, a Flag tag and a TEV protease recognition sequence (ENLYFQG; SEQ ID NO: 11) were inserted at the 5′ end and an EcoRI restriction enzyme site was inserted at the 3′ end in order to facilitate cloning and purify the expressed protein. The obtained gene was inserted into the pFASTbac1 vector required for baculovirus production to perform cloning. The cloned vector was transfected into DH10 bac (Invitrogen) to obtain a bacmid comprising the ADIPOR1 gene through recombination. In order to produce baculovirus, the obtained bacmid was transfected into SF9 cells (5×10^4 cells) using Transfectine (Qiagen), and the baculovirus secreted in a medium was collected after 5 days. Then, a large amount of baculovirus was produced through amplification. The obtained baculovirus was inoculated into SF9 cells (5×10^6 cells/ml) cultured in a 1 L SFM900 medium, and protein was expressed at a temperature of 27° C. for 3 days. The SF9 cells expressing recombinant ADIPOR1 were obtained through centrifugation. The obtained cell pellets were aliquoted and stored at −80° C., and used in protein purification as needed to minimize the disadvantages of membrane proteins, which have the possibility of inactivation due to storage after purification. The ADIPOR1, which is a membrane protein expressed on a cell membrane, was solubilized using a detergent (1% DDM) for purification. The dissolved sample was reacted with anti-Flag antibody bead (Sigma) for 1 hour in ice. Then, ADIPOR1 bound to the anti-Flag antibody bead was eluted with Flag peptide. The primarily purified ADIPOR1 was subjected to size exclusion chromatography (Supderdex200, GE healthcare) to obtain only monomeric, proteins. […]
In order to analyze the binding force between peptide and ADIPOR1, a purified recombinant ADIPOR1 (A88) was bound to a CM5 chip with 3000 RU or higher through amine coupling. […] The affinity value was calculated using the affinity fitting or kinetics fitting method. […] The peptide concentrations were calculated by measuring the […] and A280 absorbance of each peptide.
With reference to FIGS. 3 and 4, surface plasmon resonance (SPR) experiments were performed in the present invention to measure the dissociation constant between the agonist peptide and the adiponectin receptor, particularly adiponectin receptor 1 (ADIPOR1). First, an expressed and purified adiponectin receptor ADIPOR1 was immobilized and its dissociation constant from candidate peptides was measured over a total of 4 rounds.

[3] = test system: AMPK phosphorylation in HepG2 cell line; assay: Western blotting of AMPK phosphorylation in HepG2 cell line; format: cell-based; conditions: HepG2, 5 h starvation, 30 min treatment; tested at 20, 4 and 0.8 uM
Protocol: (§1) C2C12 and HepG2 cells were purchased from ATCC. Before use, they were cultured in a DMEM (Hyclone) medium supplemented with 10% FBS (Hyclone) and 1% penicillin/streptomycin in an incubator at 37° C. in a 5% CO2 environment.
(§2) Based on the prior finding, after optimization of the number of the cells to be used for experiment, HepG2 was starved for 5 hours, recovered, and treated with peptide for 30 minutes, and C2C12 was starved for 24 hours and treated with peptide for 10 minutes. The treated cell samples were washed once with cold PBS and lysed for 15 minutes with a RiPA buffer containing a protease inhibitor and a phosphatase inhibitor. After 15 minutes, centrifugation was carried out at 14000 rpm for 5 minutes to collect only proteins. After quantification, 4× sample buffer and 2-ME were added to prepare a sample for western blotting. The western blotting was performed using a conventional western blotting technique. The antibodies of AMPK, p-AMPK, p-AKT, p-ACC and GAPDH were diluted to 1:1000 or 1:2000 depending on the type thereof and imaging was performed with a LAS-4000 instrument.
HepG2 cell line was plated on a 12-well plate at a concentration of 8*10^5 cells/well on the day before the experiment. […]

[4] = test system: AMPK phosphorylation in C2C12 cell line; assay: Western blotting of AMPK phosphorylation in differentiated C2C12 myotubes; format: cell-based; conditions: 10 min treatment, tested at 20, 4 and 0.8 uM
Protocol: as §1
C2C12 cells were plated in 12 wells. […] Then, the medium was replaced with a differentiation medium in which DMEM is supplemented with 2.5% horse serum and 1% penicillin/streptomycin. Thereafter, differentiation was performed for 5-7 days, replacing the medium with a new differentiation medium every day. The thus-obtained product was used for experiments.
as §2, with “The antibodies of AMPK, p-AMPK, p-AKT, p-ACC and GAPDH were diluted to 1:1000 or 1:2000 depending on the type thereof and imaging was performed with a LAS-4000 instrument.” left out

T1 sequence (Q96A54 whole entry, looked up): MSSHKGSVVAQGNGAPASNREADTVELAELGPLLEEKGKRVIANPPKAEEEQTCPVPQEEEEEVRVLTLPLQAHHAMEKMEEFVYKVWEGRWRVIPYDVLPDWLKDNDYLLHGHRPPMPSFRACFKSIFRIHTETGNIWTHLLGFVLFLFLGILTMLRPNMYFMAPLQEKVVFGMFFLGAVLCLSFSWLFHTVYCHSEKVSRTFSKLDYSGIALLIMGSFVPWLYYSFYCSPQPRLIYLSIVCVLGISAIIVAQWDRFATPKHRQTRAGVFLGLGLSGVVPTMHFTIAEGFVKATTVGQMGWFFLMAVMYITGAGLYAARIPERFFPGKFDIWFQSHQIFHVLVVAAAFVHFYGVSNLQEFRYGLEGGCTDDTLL

| Compound | Kd [1] [µM] | Kd [2] [µM] | further results |
| --- | --- | --- | --- |
| CC[C@H](C)[C@H](NC(=O)[C@H](CC(N)=O)NC(=O)[C@@H]1CCCN1C(=O)[C@H](Cc1c[nH]cn1)NC(=O)[C@H](Cc1ccc(O)cc1)NC(=O)[C@H](C)NC(=O)[C@H](Cc1ccccc1)NC(=O)[C@H](Cc1ccc(O)cc1)NC(=O)[C@@H](N)Cc1ccc(O)cc1)C(=O)N1CCC[C@H]1C(=O)NCC(=O)N[C@@H](CC(C)C)C(=O)N[C@@H](Cc1ccc(O)cc1)C(=O)N[C@@H](Cc1ccc(O)cc1)C(=O)N[C@@H](Cc1ccccc1)C(=O)O [3-1, YYFAYHPNIPGLYYF (SEQ ID NO: 1 where Xaa1 and Xaa13 each is tyrosine)] (H-YYFAYHPNIPGLYYF-OH; N-terminus and C-terminus assumed) | 16 | – | – |
| CC[C@H](C)[C@H](NC(=O)[C@H](CC(N)=O)NC(=O)[C@@H]1CCCN1C(=O)[C@H](Cc1c[nH]cn1)NC(=O)[C@H](Cc1ccc(O)cc1)NC(=O)[C@H](C)NC(=O)[C@H](Cc1ccccc1)NC(=O)[C@H](Cc1ccc(O)cc1)NC(=O)[C@@H](N)Cc1ccccc1)C(=O)N1CCC[C@H]1C(=O)NCC(=O)N[C@@H](CC(C)C)C(=O)N[C@@H](Cc1ccccc1)C(=O)N[C@@H](Cc1ccc(O)cc1)C(=O)N[C@@H](Cc1ccccc1)C(=O)O [peptide 4-4, Phe-Tyr-Phe-Ala-Tyr-His-Pro-Asn-Ile-Pro-Gly-Leu-Phe-Tyr-Phe] (H-FYFAYHPNIPGLFYF-OH) | – | 2 to 4.3 | – |
| CC[C@H](C)[C@H](NC(=O)[C@H](CC(N)=O)NC(=O)[C@@H]1CCCN1C(=O)[C@H](Cc1c[nH]cn1)NC(=O)[C@H](Cc1ccc(O)cc1)NC(=O)[C@H](C)NC(=O)[C@H](Cc1ccccc1)NC(=O)[C@H](Cc1ccc(O)cc1)NC(=O)[C@@H](N)Cc1c[nH]c2ccccc12)C(=O)N1CCC[C@H]1C(=O)NCC(=O)N[C@@H](CC(C)C)C(=O)N[C@@H](Cc1c[nH]c2ccccc12)C(=O)N[C@@H](Cc1ccc(O)cc1)C(=O)N[C@@H](Cc1ccccc1)C(=O)O [peptide 4-3, Trp-Tyr-Phe-Ala-Tyr-His-Pro-Asn-Ile-Pro-Gly-Leu-Trp-Tyr-Phe] (H-WYFAYHPNIPGLWYF-OH) | – | 6 to 10 | – |
| CC[C@H](C)[C@H](NC(=O)[C@H](CC(N)=O)NC(=O)[C@@H]1CCCN1C(=O)[C@H](Cc1c[nH]cn1)NC(=O)[C@H](Cc1ccc(O)cc1)NC(=O)[C@H](C)NC(=O)[C@H](Cc1ccccc1)NC(=O)[C@H](Cc1ccc(O)cc1)NC(=O)[C@@H](N)Cc1ccc(O)cc1)C(=O)N1CCC[C@H]1C(=O)NCC(=O)N[C@@H](CC(C)C)C(=O)N[C@@H](Cc1ccc(O)cc1)C(=O)N[C@@H](Cc1ccc(O)cc1)C(=O)N[C@@H](Cc1ccccc1)C(=O)O [peptide 3-1, Tyr-Tyr-Phe-Ala-Tyr-His-Pro-Asn-Ile-Pro-Gly-Leu-Tyr-Tyr-Phe] (H-YYFAYHPNIPGLYYF-OH) | – | ≤ 16 | – |
| CCC[C@H](NC(=O)[C@@H]1CCCN1C(=O)[C@@H](NC(=O)[C@H](N)CC(N)=O)[C@@H](C)CC)C(=O)N[C@@H](CC(C)C)C(=O)N[C@@H](Cc1ccc(O)cc1)C(=O)N[C@H](CO)C(=O)N[C@@H](Cc1ccccc1)C(=O)N[C@@H](C)C(=O)N[C@H](CO)C(N)=O [ADP355, H-DAsn-Ile-Pro-Nva-Leu-Tyr-DSer-Phe-Ala-DSer-NH2] (H-[dN]IP[Nva]LY[dS]FA[dS]-NH2) | – | ≥ 100 | concentration from which AMPK was phosphorylated [3]: 20 µM; concentration from which AMPK was phosphorylated [4]: 4 µM |
| CC[C@H](C)[C@H](NC(=O)[C@H](CC(N)=O)NC(=O)[C@@H]1CCCN1C(=O)[C@H](Cc1c[nH]cn1)NC(=O)[C@H](Cc1ccc(O)cc1)NC(=O)[C@H](C)NC(=O)[C@H](Cc1ccccc1)NC(=O)[C@H](CO)NC(=O)[C@@H](N)Cc1ccc(O)cc1)C(=O)N1CCC[C@H]1C(=O)NCC(=O)N[C@@H](CC(C)C)C(=O)N[C@@H](Cc1ccc(O)cc1)C(=O)N[C@@H](Cc1ccc(O)cc1)C(=O)N[C@@H](Cc1ccccc1)C(=O)O [4-5, YSFAYHPNIPGLYYF (SEQ ID NO: 7)] (H-YSFAYHPNIPGLYYF-OH; N-terminus and C-terminus assumed) | 24.5 | – | – |
